Measurements reported in patent US20230145305A1, “COMPOUNDS USEFUL AS KINASE INHIBITORS” (Fochon Biosciences, Ltd., priority 2020, published 2023).

Tested on: OCI-LY10 cells
Test: Cell proliferation assay (MTS) in OCI-LY10 cells
Type: cell-based
Settings: Homo sapiens; inhibition of OCI-LY10 cells proliferation, 72 h incubation, MTS, absorbance at 490 nm; read-out: OCI-LY10 IC50
Source text: MTS testing kit was purchased from Promega (Madison, Wis., USA). The RPMI-1640, Fetal bovine serum and Penicillin-Streptomycin were purchased from BI (Biological Industries, Beit Haemek, Israel). Dimethyl sulfoxide (DMSO) was purchased from Sigma (St. Louis., Mo., USA). […] To investigate whether a compound is able to inhibit the activity of BTK in cells, a mechanism-based assay using OCI-LY10 cells was developed. In this assay, inhibition of BTK was detected by the inhibition of OCI-LY10 cells proliferation. Cells were plated into 96-well plates at a density of 10000 cells/well. Plates were incubated at 37° C., with 5% CO2 for 4 h. […] Plates were incubated at 37° C., with 5% CO2 for 72 h. 20 μl MTS was added into each well and the plates were incubated at 37° C., with 5% CO2 for exactly 2 h. The absorbance was measured by a microplate reader at 490 nm. IC50 was calculated using GraphPad Prism 5.0 software. Select compounds prepared as described above were assayed according to the biological procedures described herein.

Compound	IC50 [nM]
COc1ccc(F)cc1C(=O)NCc1ccc(-c2nn(C(C)CF)c3c(=O)[nH]nc(N)c23)cc1 (stereo not drawn) [Example 75, N-(4-(4-amino-1-(1-fluoropropan-2-yl)-7-oxo-6,7-dihydro-1H-pyrazolo[3,4-d]pyridazin-3-yl)benzyl)-5-fluoro-2-methoxybenzamide]	12
COc1ccc(F)cc1C(=O)NCc1ccc(-c2nn(C(C)C(C)C)c3c(=O)[nH]nc(N)c23)cc1 (stereo not drawn) [Example 69, N-(4-(4-amino-1-(3-methylbutan-2-yl)-7-oxo-6,7-dihydro-1H-pyrazolo[3,4-d]pyridazin-3-yl)benzyl)-5-fluoro-2-methoxybenzamide]	5
COc1ccc(F)cc1C(=O)NCc1ccc(-c2nn(C3(C)CCC3)c3c(=O)[nH]nc(N)c23)cc1 [Example 73, N-(4-(4-amino-1-(1-methylcyclobutyl)-7-oxo-6,7-dihydro-1H-pyrazolo[3,4-d]pyridazin-3-yl)benzyl)-5-fluoro-2-methoxybenzamide]	1
COc1ccc(F)cc1C(=O)NCc1ccc(-n2nc(C3CCCC3)c3c(=O)[nH]nc(N)c32)cc1 [Example 16, N-(4-(7-amino-3-cyclopentyl-4-oxo-4,5-dihydro-1H-pyrazolo[3,4-d]pyridazin-1-yl)benzyl)-5-fluoro-2-methoxybenzamide]	1
COc1ccc(F)cc1C(=O)NCc1ccc(-c2nn([C@@H]3CCCC3(F)F)c3c(=O)[nH]nc(N)c23)cc1 [Example 72, (R)-N-(4-(4-amino-1-(2,2-difluorocyclopentyl)-7-oxo-6,7-dihydro-1H-pyrazolo[3,4-d]pyridazin-3-yl)benzyl)-5-fluoro-2-methoxybenzamide]	1
COc1ccc(F)cc1C(=O)NCc1ccc(-c2cn([C@@H]3CCN(S(=O)(=O)C(C)C)C3)c3c(=O)[nH]nc(N)c23)cc1 [Example 111, (R)-N-(4-(4-amino-1-(1-(isopropylsulfonyl)pyrrolidin-3-yl)-7-oxo-6,7-dihydro-1H-pyrrolo[2,3-d]pyridazin-3-yl)benzyl)-5-fluoro-2-methoxybenzamide]	14
COc1ccc(F)cc1C(=O)NCc1ccc(-c2cn(C3CC(F)(F)C3)c3c(=O)[nH]nc(N)c23)cn1 [Example 55]	28
COc1ccc(F)cc1C(=O)NCc1ccc(-n2nc(C3CCCO3)c3c(=O)[nH]nc(N)c32)cc1 (stereo not drawn) [Example 86, N-(4-(7-amino-4-oxo-3-(tetrahydrofuran-2-yl)-4,5-dihydro-1H-pyrazolo[3,4-d]pyridazin-1-yl)benzyl)-5-fluoro-2-methoxybenzamide]	90
COc1ccc(F)cc1C(=O)NCc1ccc(-n2nc(C3CC(F)(F)C3)c3c(=O)[nH]nc(N)c32)cc1 [Example 97, N-(4-(7-amino-3-(3,3-difluorocyclobutyl)-4-oxo-4,5-dihydro-1H-pyrazolo[3,4-d]pyridazin-1-yl)benzyl)-5-fluoro-2-methoxybenzamide]	23
COc1ccc(F)cc1C(=O)NCc1ccc(-n2nc(C(C)C(F)(F)F)c3c(=O)[nH]nc(N)c32)cc1 (stereo not drawn) [Example 41, N-(4-(7-amino-4-oxo-3-(1,1,1-trifluoropropan-2-yl)-4,5-dihydro-1H-pyrazolo[3,4-d]pyridazin-1-yl)benzyl)-5-fluoro-2-methoxybenzamide]	18
COc1ccc(F)cc1C(=O)NCc1ccc(-n2cc(C3CCCC3)c3ncnc(N)c32)cc1 [Example 18, N-(4-(4-amino-7-cyclopentyl-5H-pyrrolo [3,2-d]pyrimidin-5-yl)benzyl)-5-flu oro-2-methoxybenzamide]	1
COC(=O)N1CC[C@@H](n2cc(-c3ccc(CNC(=O)c4cc(F)ccc4OC)cc3)c3c(N)n[nH]c(=O)c32)C1 [Example 49, methyl (R)-3-(4-amino-3-(4-((5-fluoro-2-methoxybenzamido)methyl)phenyl)-7-oxo-6,7-dihydro-1H-pyrrolo[2,3-d]pyridazin-1-yl)pyrrolidine-1-carboxylate]	9
